Measurements published in patent publication US7422846B2, “Natural ligand for orphan G protein coupled receptor GPR86 and methods of use” (Euroscreen S.A, priority 2001, dated 2008).
Read-outs that look alike come from different tables or passages of the source.

What was measured:
[1] = target: T1, GPR86 (P2Y13) human receptor (Homo sapiens, UniProt Q9BPV8, T179M); assay: IP3 accumulation in 1321N1 cells (AG32) expressing GPR86 (P2Y13) together with Gα16; type: cell-based; parameters: expressed in transfected cells; host or cells: 1321N1 astrocytoma clone AG32 (stably expressing Gα16 from pERAEQ2), G418-selected; details: for IP3 response to nucleotides: 100 μM for 30 s, pool of G418-resistant clones expressing GPR86 and Gα16; for effect on IP3 accumulation: 100 nM and 10 μM; for IP3 responses after treatment of the nucleotide solutions with CPK and CP (ATP-regenerating system): 1 mM solutions, 20 units/ml CPK, 10 mM CP, 90 min, FIG. 4B; for agonist character at human P2Y13 receptor: after creatinephosphate and creatinephosphokinase treatment
T1 sequence (Q9BPV8 22-354 T179M): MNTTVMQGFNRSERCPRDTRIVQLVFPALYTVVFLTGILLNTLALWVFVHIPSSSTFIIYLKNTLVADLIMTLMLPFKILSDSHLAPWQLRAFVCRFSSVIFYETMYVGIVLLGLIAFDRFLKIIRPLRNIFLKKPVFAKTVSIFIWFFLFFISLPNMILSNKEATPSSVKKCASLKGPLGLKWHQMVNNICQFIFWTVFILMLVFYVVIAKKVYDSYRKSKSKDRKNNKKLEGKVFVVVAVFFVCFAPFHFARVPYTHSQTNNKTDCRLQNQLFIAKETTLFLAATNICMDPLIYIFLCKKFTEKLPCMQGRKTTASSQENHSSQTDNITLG
Experimental: Cells of the invention, for example, 1321N1 cells, are labelled for 24 hours with 10 μCi/ml [^3H] inositol in inositol free DMEM containing 5% FCS, antibiotics, amphotericin, sodium pyruvate and 400 μg/ml G418. Cells are incubated for 2 h in Krebs-Ringer Hepes (KRH) buffer of the following composition (124 mM NaCl, 5 mM KCl, 1.25 mM MgSO4, 1.45 mM CaCl2, 1.25 mM KH2PO4, 25 mM Hepes (pH: 7.4) and 8 mM glucose). The cells are then challenged with various nucleotides for 30 s. The incubation is stopped by the addition of an ice cold 3% perchloric acid solution. IP are extracted and separated on Dowex columns as previously described (25). 2MeSATP and ATP solutions (1 mM) are treated at room temperature with 20 units/ml CPK and 10 Mm cp for 90 min to circumvent problems arising from the contamination and degradation of triphosphate nucleotide solutions.
CHO-K1 and 1321N1 cells were transfected with the recombinant GPR86-pEFIN5 plasmid or with the plasmid alone using the FuGENE™6 transfection reagent (Roche Molecular Biochemicals). A clone called AG32 corresponding to 1321N1 cells previously transfected with pERAEQ2 plasmid encoding Gα16 (provided by Euroscreen), was transfected. The CHO-K1 and 1321N1 transfected cells were selected with 400 μg/ml G418 in complete medium (10% FBS, 100 units/ml penicillin, 100 μg/ml streptomycin and 2.5 μg/ml amphotericin B in respectively Ham's F12 or DMEM (Dulbecco's modified Eagle's) medium) two days after transfection and maintained in the same medium. The AG32 cells were maintained in the same DMEM complete medium supplemented with 500 μg/ml zeocin.
The pool of G418-resistant clones was tested for its functional IP3 response to several nucleotides, according to the method described above. The cells were challenged by various nucleotides at a concentration of 100 μM for 30 s: ATP, ADP, UTP, UDP, ITP, IDP, TDP.
Concentration-action curves for ADP, 2MeSADP and ADPβS. […] 1321N1 transfected cells were incubated in the presence of various concentrations of ADP, 2MeSADP and ADPβS for 30 s. The data represent the mean±S.D. of triplicate experimental points obtained in one representative experiment of three.
AG32 cells were seeded (200,000 cells per dish) on 35 mm (diameter) Petri dishes and labeled for 24 h with 5 μCi/ml [3H]-myoinositol in inositol free DMEM containing 5% fetal calf serum, antibiotics, amphotericin, sodium pyruvate, and 400 μg/ml of G418. Cells were incubated for 2 h in Krebs-Ringer Hepes (KRH) buffer (124 mM NaCl, 5 mM KCl, 1.25 mM MgSO4, 1.45 mM CaCl2, 1.25 mM KH2PO4, 25 mM Hepes (pH 7.4) and 8 mM D-glucose). The cells were then incubated in presence of ADP, ATP or 2MeSATP for 30 s. The incubation was stopped by the addition of 1 ml of an ice-cold 3% perchloric acid solution. Prior to the stimulation, ATP and 2MeSATP (1 mM solutions) were incubated for 90 min at room temperature with 20 units/ml creatine phosphokinase (CPK) and 10 mM creatine phosphate (CP). The reaction was stopped by addition of 10 mM iodoacetamide.
AG32 cells were seeded (200,000 cells per dish) on 35 mm (diameter) Petri dishes and labeled for 24 h with 5 μCi/ml [^3H]-myoinositol in inositol free DMEM containing 5% fetal calf serum, antibiotics, amphotericin, sodium pyruvate, and 400 μg/ml of G418. Cells were incubated for 2 h in Krebs-Ringer Hepes (KRH) buffer (124 mM NaCl, 5 mM KCl, 1.25 mM MgSO4, 1.45 mM CaCl2, 1.25 mM KH2PO4, 25 mM Hepes (pH 7.4) and 8 mM D-glucose). The cells were then incubated in presence of two different concentrations (100 nM and 10 μM) of ADP or ApnA (n=3-6) for 30 s. The incubation was stopped by the addition of 1 ml of an ice-cold 3% perchloric acid solution.
AG32 cells were seeded (200,000 cells per dish) on 35 mm (diameter) Petri dishes and labeled for 24 h with 5 μCi/ml [^3H]-myoinositol in inositol free DMEM containing 5% fetal calf serum, antibiotics, amphotericin, sodium pyruvate, and 400 μg/ml of G418.

[2] = target: T1, GPR86 (P2Y13) human receptor; assay: Western blot of phosphorylated Erk1 and Erk2 in GPR86-transfected CHO-K1 cells; type: cell-based; parameters: expressed in transfected cells; details: pertussis toxin 100 ng/ml for 18 h; agonist 1 μM, 5 or 30 minutes
Experimental: To investigate changes in the activation status of the MAP kinases Erk1 and Erk2 upon stimulation of the human GPR86 receptor, whole CHO-K1 transfected cell extracts were analysed by Western blotting using a specific antibody for the dually phosphorylated kinases (at Thr^202 and Tyr^204), which are the active forms of Erk. Western Blot Analysis of phosphorylated Erk1 and Erk2 proteins.
GPR86-transfected CHO-K1 cells were seeded at 1.5×10^6 cells/dish. After 24 h, the cells were serum-starved for 2 h in KRH buffer. After stimulation with the agonist, the cells were scraped in 1 ml of PBS pH 7.3 (137 mM NaCl, 2.7 mM KCl, 4.3 mM Na2HPO4.7H2O and 1.4 mM KH2PO4). The cells were recovered by centrifugation and lysed in 150 μl of Laemmli buffer (10% (w/v) glycerol, 5% (v/v) mercaptoethanol, 2.3% (w/v) SDS, 62.5 mM Tris-HCl pH 6.8). The protein concentration was determined using the method of Minamide and Bamburg (27). The same amount of protein for each condition was electrophoresed in a 12% SDS-polyacrylamide gel. Proteins were then transferred overnight at 60 V and 4° C. onto a nitrocellulose membrane using 20 mM Tris, 154 mM glycine, 20% (v/v) methanol as a transfer buffer. Immunodetection was achieved using the enhanced chemiluminescence Western blotting detection system (ECL, Amersham Phammacia Biotech) using a biotinylated-secondary mouse antibody ( 1/25,000). The monoclonal antibody specific for the dually phosphorylated forms of Erk1 and Erk2 (at Thr^202 and Tyr^204) was used at 1/1000-dilution.
In CHO-K1 cells, phosphorylated Erk1 and Erk2 had the predicted molecular mass of 44 and 42 kDa, respectively. […] GPR86-transfected CHO-K1 cells were stimulated during different times or with various concentrations of ADP and 2MeSADP or water (CONT). The effect of 100 ng/ml pertussis toxin (PTx) has been tested at 5 and 30 min in the presence of 1 μM ADP or 2MeSADP. Blotting and immunodetection were achieved as described using the enhanced chemiluminescence Western blotting detection system (ECL, Amersham Pharmacia Biotech).

[3] = 1321N1 cells expressing GPR86 and Gα16
[4] = AG32 cells, nucleotides pretreated with creatine phosphokinase and creatine phosphate, 30 s, read-out: EC50, stimulation of GPR86 receptor activity ([3H]IP3)

`O=c1[nH]cnc2c1ncn2[C@@H]1O[C@H](COP(=O)(O)OP(=O)(O)OP(=O)(O)O)[C@@H](O)[C@H]1O` [ITP] was tested. Which “IP3 response to nucleotides” value [1] did it give?
Its value is “No IP3 response”.

For `Cc1cn([C@H]2C[C@H](O)[C@@H](COP(=O)(O)OP(=O)(O)O)O2)c(=O)[nH]c1=O` [TDP], which “IP3 response to nucleotides” value [1] is on record?
The value was “No IP3 response”.

`Nc1ncnc2c1ncn2[C@@H]1O[C@H](COP(=O)(O)OP(=O)(O)OP(=O)(O)OC[C@H]2O[C@@H](n3cnc4c(N)ncnc43)[C@H](O)[C@@H]2O)[C@@H](O)[C@H]1O` [Ap3A] was tested. Which “effect on IP3 accumulation” value ([1]; AG32 cells, 30 s) did it give?
The value was “almost equal to that of ADP”.

Which IP3 response [1, 3] does the source give for `Nc1ncnc2c1ncn2[C@@H]1O[C@H](COP(=O)(O)OS(=O)(=O)O)[C@@H](OP(=O)(O)O)[C@H]1O` [A3P5PS, adenosine 3′-phosphate 5′-phosphosulfate] here?
The IP3 response was “No IP3 response”.

With “adenosine 5′-O-(2-thiodiphosphate) [ADPβS]” as the molecule, how does the EC50 ([1]; 1321N1 cells expressing GPR86 and Gα16, 30 s, mean±S.D. of three independent experiments, read-out: EC50, IP3 accumulation) read?
Its EC50 is 48.4 ± 0.4 nM.

For `O=c1ccn([C@@H]2O[C@H](COP(=O)(O)OP(=O)(O)OP(=O)(O)O)[C@@H](O)[C@H]2O)c(=O)[nH]1` [UTP], which “IP3 response to nucleotides” value [1] is on record?
Its value is “No IP3 response”.

How did the IP3 response [1, 3] turn out when `Nc1ncnc2c1ncn2[C@@H]1O[C@H](COP(=O)(O)O)[C@@H](OP(=O)(O)O)[C@H]1O` [A3P5P, adenosine 3′,5′-diphosphate] was run?
Its IP3 response is “No IP3 response”.

Which “IP3 response to nucleotides” value [1] does the source give for `O=c1[nH]cnc2c1ncn2[C@@H]1O[C@H](COP(=O)(O)OP(=O)(O)O)[C@@H](O)[C@H]1O` [IDP] here?
The value was “induced an IP3 response”.

How did the IP3 response [1, 3] turn out when `Nc1ncnc2c1ncn2[C@@H]1O[C@H](COP(=O)(O)O)[C@@H](O)[C@H]1OP(=O)(O)O` [A2P5P, adenosine 2′,5′-diphosphate] was run?
Its IP3 response is “No IP3 response”.

Which “IP3 response to nucleotides” value [1] does the source give for `CSc1nc(N)c2ncn([C@@H]3O[C@H](COP(=O)(O)OP(=O)(O)OP(=O)(O)O)[C@@H](O)[C@H]3O)c2n1` [2MeSATP, 2-methylthio-ATP] here?
Its value is “responses were lost after HPLC-purification”.

And the “IP3 responses after treatment of the nucleotide solutions with CPK and CP (ATP-regenerating system)” value [1]?
The value was “abolished”.

And the “agonist character at human P2Y13 receptor” value ([1]; AG32 cells)?
The value was “partial agonists”.

And the EC50 [1, 4]?
Its EC50 is 1500 ± 200 nM.

For `O=c1ccn([C@@H]2O[C@H](COP(=O)(O)OP(=O)(O)O)[C@@H](O)[C@H]2O)c(=O)[nH]1` [UDP], which “IP3 response to nucleotides” value [1] is on record?
Its value is “induced an IP3 response”.

`Nc1ncnc2c1ncn2[C@@H]1O[C@H](COP(=O)(O)OP(=O)(O)OP(=O)(O)OP(=O)(O)OP(=O)(O)OC[C@H]2O[C@@H](n3cnc4c(N)ncnc43)[C@H](O)[C@@H]2O)[C@@H](O)[C@H]1O` [Ap5A] was tested. Which “effect on IP3 accumulation” value ([1]; AG32 cells, 30 s) did it give?
The value was “inactive”.

For pertussis toxin, which “effect on Erk phosphorylation induced by ADP or 2-MeSADP” value [2] is on record?
Its value is “strongly inhibited”.

What about the “inhibition of the ADP response (IP3)” value ([1]; ADP 300 nM, 18 hours pretreatment with 100 ng/ml pertussis toxin, mean±range of two independent experiments) of the same molecule?
Its value is 86±8%.

For `Nc1ncnc2c1ncn2[C@@H]1O[C@H](COP(=O)(O)OP(=O)(O)OP(=O)(O)OP(=O)(O)OC[C@H]2O[C@@H](n3cnc4c(N)ncnc43)[C@H](O)[C@@H]2O)[C@@H](O)[C@H]1O` [Ap4A], which “effect on IP3 accumulation” value ([1]; AG32 cells, 30 s) is on record?
The value was “inactive”.

For `Nc1ncnc2c1ncn2[C@@H]1O[C@H](COP(=O)(O)OP(=O)(O)OP(=O)(O)O)[C@@H](O)[C@H]1O` [ATP], which “IP3 response to nucleotides” value [1] is on record?
Its value is “responses were lost after HPLC-purification”.

And the “IP3 responses after treatment of the nucleotide solutions with CPK and CP (ATP-regenerating system)” value [1]?
Its value is “abolished”.

And the “agonist character at human P2Y13 receptor” value ([1]; AG32 cells)?
Its value is “partial agonists”.

And the EC50 [1, 4]?
Its EC50 is 4200 ± 800 nM.

With Poly[A] as the molecule, how does the “activity on human GPR86 after creatinephosphate/creatinephosphokinase treatment” value ([1]; AG32 cells, 30 s, FIG. 10) read?
The value was “still able to activate GPR86”.

And the EC50 ([1]; AG32 cells, after creatinephosphate/creatinephosphokinase treatment, concentration in AMP equivalent, read-out: EC50, activation of GPR86 ([3H]IP3))?
Its EC50 is 205000 ± 60000 nM.

`Nc1ncnc2c1ncn2[C@@H]1O[C@H](COP(=O)(O)OP(=O)(O)OP(=O)(O)OP(=O)(O)OP(=O)(O)OP(=O)(O)OC[C@H]2O[C@@H](n3cnc4c(N)ncnc43)[C@H](O)[C@@H]2O)[C@@H](O)[C@H]1O` [Ap6A] was tested. Which “effect on IP3 accumulation” value ([1]; AG32 cells, 30 s) did it give?
The value was “inactive”.
